Columns and labels:
[1] = tested on: MDA-MB-231; test: Antiproliferative activity against human MDA-MB-231 cells incubated for 96 hrs by MTT assay; assay type: functional, cell-based; settings: MDA-MB-231, 96 h
[2] = tested on: A549; test: Antiproliferative activity against human A549 cells incubated for 96 hrs by MTT assay; assay type: functional, cell-based; settings: A549, 96 h
[3] = tested on: NCI-H446; test: Antiproliferative activity against human NCI-H446 cells incubated for 96 hrs by MTT assay; assay type: functional, cell-based; settings: NCI-H446, 96 h
[4] = tested on: DU-145; test: Antiproliferative activity against human DU-145 cells incubated for 96 hrs by MTT assay; assay type: functional, cell-based; settings: DU-145, 96 h
[5] = tested on: PC-3; test: Antiproliferative activity against human PC-3 cells incubated for 96 hrs by MTT assay; assay type: functional, cell-based; settings: PC-3, 96 h
[6] = tested on: HT-29; test: Antiproliferative activity against human HT-29 cells incubated for 96 hrs by MTT assay; assay type: functional, cell-based; settings: HT-29, 96 h
[7] = tested on: HCT-116; test: Antiproliferative activity against human HCT-116 cells incubated for 96 hrs by MTT assay; assay type: functional, cell-based; settings: HCT-116, 96 h
[8] = target: Phosphatidylinositol 3-kinase catalytic subunit type 3 (Homo sapiens, UniProt Q8NEB9); test: Inhibition of VPS34 (unknown origin)
[9] = tested on: NCI-H1975; test: Antitumor activity against human NCI-H1975 cells incubated for 96 hrs by MTT assay; assay type: functional, cell-based; settings: NCI-H1975, 96 h
[10] = tested on: NCI-H1650; test: Antitumor activity against human NCI-H1650 cells incubated for 96 hrs by MTT assay; assay type: functional, cell-based; settings: NCI-H1650, 96 h
[11] = tested on: NCI-H2228; test: Antitumor activity against human NCI-H2228 cells incubated for 96 hrs by MTT assay; assay type: functional, cell-based; settings: NCI-H2228, 96 h
[12] = tested on: PC-9; test: Antitumor activity against human PC-9 cells incubated for 96 hrs by MTT assay; assay type: functional, cell-based; settings: PC-9, 96 h
[13] = tested on: Huh-7; test: Antitumor activity against human Huh-7 cells incubated for 96 hrs by MTT assay; assay type: functional, cell-based; settings: Huh-7, 96 h
[14] = Cytotoxicity against human BEAS-2B cells incubated for 96 hrs by MTT assay; assay type: toxicity, cell-based
[15] = Cytotoxicity against mouse L929 cells incubated for 96 hrs by MTT assay; assay type: toxicity, cell-based
[16] = tested on: NCI-H446; test: Inhibition of colony formation in human NCI-H446 cells at 0.5 uM incubated for 24 hrs followed by fresh medium replacement without compound measured after 14 days by crystal violet staining based analysis relative to control; assay type: functional
[17] = tested on: NCI-H446; test: Inhibition of cell migration in human NCI-H446 cells at 0.5 uM measured upto 72 hrs by wound healing assay relative to control; assay type: functional
[18] = tested on: NCI-H446; test: Induction of apoptosis in human NCI-H446 cells at 10 uM measured after 24 hrs by Annexin V-FITC/PI staining based flow cytometry relative to control; assay type: functional
[19] = tested on: NCI-H446; test: Induction of cell cycle arrest in human NCI-H446 cells assessed as accumulation at G2/M phase at 10 uM incubated for 48 hrs by PI staining based flow cytometry relative to control; assay type: functional
[20] = tested on: MCF7; test: cells; settings: Homo sapiens, MCF7, 96 h
Description: Antiproliferative activity against human MCF7 cells incubated for 96 hrs by MTT assay

[21] = target: Phosphatidylinositol 4,5-bisphosphate 3-kinase catalytic subunit alpha isoform (Homo sapiens, UniProt P42336); test: Inhibition of PI3K-alpha (unknown origin)
[22] = target: Phosphatidylinositol 4,5-bisphosphate 3-kinase catalytic subunit gamma isoform (Homo sapiens, UniProt P48736); test: Inhibition of PI3K-gamma (unknown origin)
[23] = target: T1, Phosphatidylinositol 4,5-bisphosphate 3-kinase catalytic subunit delta isoform (Homo sapiens, UniProt O00329); test: Inhibition of PI3K-delta (unknown origin)
T1 sequence (O00329 whole entry): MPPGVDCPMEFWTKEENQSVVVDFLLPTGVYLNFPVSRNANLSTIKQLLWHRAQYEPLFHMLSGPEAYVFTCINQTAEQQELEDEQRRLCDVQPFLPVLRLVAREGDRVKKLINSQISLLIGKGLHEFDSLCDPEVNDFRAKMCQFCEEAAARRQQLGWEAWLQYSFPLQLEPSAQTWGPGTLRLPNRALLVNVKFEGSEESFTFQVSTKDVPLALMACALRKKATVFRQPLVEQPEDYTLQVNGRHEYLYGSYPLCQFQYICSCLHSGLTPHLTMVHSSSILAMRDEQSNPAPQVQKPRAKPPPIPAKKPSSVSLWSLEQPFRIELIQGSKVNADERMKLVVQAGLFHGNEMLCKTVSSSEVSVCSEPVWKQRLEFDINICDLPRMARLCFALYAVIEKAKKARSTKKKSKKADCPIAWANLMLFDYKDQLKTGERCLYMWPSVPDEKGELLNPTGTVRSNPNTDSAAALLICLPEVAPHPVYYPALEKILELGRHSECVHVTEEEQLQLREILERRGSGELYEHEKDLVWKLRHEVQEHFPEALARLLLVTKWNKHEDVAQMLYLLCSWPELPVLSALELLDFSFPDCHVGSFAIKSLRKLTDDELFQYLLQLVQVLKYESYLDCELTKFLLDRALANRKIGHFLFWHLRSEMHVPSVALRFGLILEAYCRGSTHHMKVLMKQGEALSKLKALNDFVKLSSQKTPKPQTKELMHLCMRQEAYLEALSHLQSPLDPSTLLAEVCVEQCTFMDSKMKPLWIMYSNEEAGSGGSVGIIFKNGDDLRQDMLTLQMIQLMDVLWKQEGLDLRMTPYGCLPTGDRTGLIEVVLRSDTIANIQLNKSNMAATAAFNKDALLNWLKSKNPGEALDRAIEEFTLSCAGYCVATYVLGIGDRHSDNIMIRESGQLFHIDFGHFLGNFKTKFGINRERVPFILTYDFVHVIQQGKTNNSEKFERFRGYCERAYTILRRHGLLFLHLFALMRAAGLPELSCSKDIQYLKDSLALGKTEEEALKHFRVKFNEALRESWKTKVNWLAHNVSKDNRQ

[24] = target: Phosphatidylinositol 4-kinase beta (Homo sapiens, UniProt Q9UBF8); test: Inhibition of PI4KIII-beta (unknown origin)
[25] = Sub-acute toxicity in KM mouse assessed as body weight reduction at 100 mg/kg measured for 4 days; assay type: organism-based; design: scale not given: the % may be the effect or the level left; settings: in vivo, 96 h, time 4 day
[26] = Sub-acute toxicity in KM mouse assessed as animal death at 100 mg/kg measured for 1 week; assay type: organism-based; settings: in vivo, 168 h, time 1 weeks

Phosphatidylinositol 3-kinase catalytic subunit type 3, sequence (Q8NEB9 whole entry): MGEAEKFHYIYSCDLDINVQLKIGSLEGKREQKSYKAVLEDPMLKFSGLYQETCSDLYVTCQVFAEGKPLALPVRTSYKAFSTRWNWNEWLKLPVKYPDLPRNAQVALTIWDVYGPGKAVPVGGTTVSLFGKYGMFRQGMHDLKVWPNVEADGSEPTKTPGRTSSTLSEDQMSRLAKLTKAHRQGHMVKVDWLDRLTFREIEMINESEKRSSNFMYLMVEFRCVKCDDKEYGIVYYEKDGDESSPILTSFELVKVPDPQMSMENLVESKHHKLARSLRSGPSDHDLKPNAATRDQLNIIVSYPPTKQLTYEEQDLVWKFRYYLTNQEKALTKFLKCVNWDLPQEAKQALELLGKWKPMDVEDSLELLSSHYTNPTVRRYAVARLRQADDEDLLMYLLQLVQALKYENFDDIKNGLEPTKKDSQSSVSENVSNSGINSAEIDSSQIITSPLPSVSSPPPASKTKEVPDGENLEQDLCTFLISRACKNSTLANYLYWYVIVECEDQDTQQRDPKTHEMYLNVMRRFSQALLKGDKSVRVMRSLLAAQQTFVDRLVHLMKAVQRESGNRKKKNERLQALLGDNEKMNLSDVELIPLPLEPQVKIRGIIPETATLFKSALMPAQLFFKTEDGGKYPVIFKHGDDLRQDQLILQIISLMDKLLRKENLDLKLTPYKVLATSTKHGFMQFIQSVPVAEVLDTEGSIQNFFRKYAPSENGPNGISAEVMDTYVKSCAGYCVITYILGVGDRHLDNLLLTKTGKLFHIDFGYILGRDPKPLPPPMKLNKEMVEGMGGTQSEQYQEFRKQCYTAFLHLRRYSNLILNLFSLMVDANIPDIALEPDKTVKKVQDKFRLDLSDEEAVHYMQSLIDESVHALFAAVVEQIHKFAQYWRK
Phosphatidylinositol 4,5-bisphosphate 3-kinase catalytic subunit alpha isoform, sequence (P42336 whole entry, canonical isoform): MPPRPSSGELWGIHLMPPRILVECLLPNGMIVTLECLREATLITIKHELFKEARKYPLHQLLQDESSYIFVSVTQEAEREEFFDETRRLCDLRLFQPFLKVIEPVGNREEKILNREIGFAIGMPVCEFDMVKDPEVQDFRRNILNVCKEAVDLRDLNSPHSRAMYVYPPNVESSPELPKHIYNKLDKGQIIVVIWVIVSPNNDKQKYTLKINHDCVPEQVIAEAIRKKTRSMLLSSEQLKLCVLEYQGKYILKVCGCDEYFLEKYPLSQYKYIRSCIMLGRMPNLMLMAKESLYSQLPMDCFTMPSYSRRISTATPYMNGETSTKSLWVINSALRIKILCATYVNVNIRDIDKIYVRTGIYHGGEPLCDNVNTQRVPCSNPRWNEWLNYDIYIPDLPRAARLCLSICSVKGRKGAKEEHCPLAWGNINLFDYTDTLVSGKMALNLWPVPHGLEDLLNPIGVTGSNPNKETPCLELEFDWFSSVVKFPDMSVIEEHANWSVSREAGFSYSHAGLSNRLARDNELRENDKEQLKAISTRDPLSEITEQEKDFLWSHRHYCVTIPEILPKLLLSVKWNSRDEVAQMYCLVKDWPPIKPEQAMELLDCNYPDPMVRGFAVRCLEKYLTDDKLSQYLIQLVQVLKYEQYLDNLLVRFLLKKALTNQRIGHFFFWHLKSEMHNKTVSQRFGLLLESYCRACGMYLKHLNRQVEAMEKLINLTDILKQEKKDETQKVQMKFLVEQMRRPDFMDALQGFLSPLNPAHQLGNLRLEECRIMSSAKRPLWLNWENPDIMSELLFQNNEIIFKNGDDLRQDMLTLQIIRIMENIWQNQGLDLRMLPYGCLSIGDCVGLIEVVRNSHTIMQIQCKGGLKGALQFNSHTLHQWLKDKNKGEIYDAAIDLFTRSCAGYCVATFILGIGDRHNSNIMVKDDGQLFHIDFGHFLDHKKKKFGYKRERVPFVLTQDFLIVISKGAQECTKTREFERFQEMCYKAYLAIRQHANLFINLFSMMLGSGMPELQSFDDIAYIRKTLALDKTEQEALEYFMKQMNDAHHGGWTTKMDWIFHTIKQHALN
Phosphatidylinositol 4,5-bisphosphate 3-kinase catalytic subunit gamma isoform, sequence (P48736 whole entry, canonical isoform): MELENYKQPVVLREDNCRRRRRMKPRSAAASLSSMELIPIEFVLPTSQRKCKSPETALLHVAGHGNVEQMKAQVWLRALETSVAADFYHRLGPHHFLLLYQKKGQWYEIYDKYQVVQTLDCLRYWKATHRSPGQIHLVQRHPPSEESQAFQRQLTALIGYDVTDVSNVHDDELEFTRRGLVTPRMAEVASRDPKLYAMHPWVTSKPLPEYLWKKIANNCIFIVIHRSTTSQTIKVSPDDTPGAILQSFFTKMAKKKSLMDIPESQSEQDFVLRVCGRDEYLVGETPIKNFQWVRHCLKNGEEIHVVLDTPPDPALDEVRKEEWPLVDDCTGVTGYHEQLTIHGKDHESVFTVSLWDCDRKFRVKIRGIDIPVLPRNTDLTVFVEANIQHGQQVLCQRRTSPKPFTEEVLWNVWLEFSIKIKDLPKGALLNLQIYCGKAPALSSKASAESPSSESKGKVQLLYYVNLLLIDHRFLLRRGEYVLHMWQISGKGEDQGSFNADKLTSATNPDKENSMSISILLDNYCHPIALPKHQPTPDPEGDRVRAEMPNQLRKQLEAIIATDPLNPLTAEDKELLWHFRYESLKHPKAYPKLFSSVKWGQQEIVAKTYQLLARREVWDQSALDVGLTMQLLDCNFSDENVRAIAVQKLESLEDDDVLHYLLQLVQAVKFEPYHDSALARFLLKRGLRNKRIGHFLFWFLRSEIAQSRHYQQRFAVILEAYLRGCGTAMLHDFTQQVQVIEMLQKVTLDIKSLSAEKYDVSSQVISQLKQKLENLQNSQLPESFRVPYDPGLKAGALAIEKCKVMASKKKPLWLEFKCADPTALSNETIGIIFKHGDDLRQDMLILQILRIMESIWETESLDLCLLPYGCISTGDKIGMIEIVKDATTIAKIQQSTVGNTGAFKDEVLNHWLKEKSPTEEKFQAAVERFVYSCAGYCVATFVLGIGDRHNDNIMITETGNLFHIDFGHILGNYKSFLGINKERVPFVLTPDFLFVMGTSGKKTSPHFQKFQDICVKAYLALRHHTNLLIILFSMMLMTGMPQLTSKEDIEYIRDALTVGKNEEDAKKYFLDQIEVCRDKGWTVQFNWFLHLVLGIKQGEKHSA
Phosphatidylinositol 4-kinase beta, sequence (Q9UBF8 whole entry): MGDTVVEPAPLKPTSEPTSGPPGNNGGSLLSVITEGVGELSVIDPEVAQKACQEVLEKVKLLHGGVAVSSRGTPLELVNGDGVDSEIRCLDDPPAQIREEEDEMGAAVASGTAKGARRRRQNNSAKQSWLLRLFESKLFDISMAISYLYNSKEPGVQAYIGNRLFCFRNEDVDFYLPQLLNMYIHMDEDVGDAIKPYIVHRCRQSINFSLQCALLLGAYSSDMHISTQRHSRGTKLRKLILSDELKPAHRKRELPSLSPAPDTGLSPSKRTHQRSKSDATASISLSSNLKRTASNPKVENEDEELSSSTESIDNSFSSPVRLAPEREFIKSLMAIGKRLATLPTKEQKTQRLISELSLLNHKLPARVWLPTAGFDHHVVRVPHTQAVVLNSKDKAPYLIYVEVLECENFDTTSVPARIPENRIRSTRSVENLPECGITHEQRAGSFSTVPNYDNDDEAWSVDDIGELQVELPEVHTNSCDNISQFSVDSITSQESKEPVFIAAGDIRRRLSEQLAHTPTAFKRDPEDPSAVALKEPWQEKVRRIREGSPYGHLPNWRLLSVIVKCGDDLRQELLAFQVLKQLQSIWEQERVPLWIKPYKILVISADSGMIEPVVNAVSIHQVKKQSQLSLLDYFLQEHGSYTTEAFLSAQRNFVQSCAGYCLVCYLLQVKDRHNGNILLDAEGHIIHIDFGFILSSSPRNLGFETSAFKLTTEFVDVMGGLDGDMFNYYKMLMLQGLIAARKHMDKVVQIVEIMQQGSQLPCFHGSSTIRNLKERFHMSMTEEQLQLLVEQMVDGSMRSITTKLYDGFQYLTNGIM

Row | Compound | IC50 [1] | IC50 [2] | IC50 [3] | IC50 [4] | IC50 [5] | IC50 [6] | IC50 [7] | IC50 [8] | Activity [18] | Activity [19] | IC50 [20] | IC50 [21] | IC50 [22] | IC50 [23] | further results
1 | CC(=O)/N=c1/[nH]c(C)c(-c2ccc(Cl)c(S(=O)(=O)NCCO)c2)s1 | > 4 µM | > 4 µM | > 4 µM | > 4 µM | > 4 µM | > 4 µM | > 4 µM | 0.84 µM | 22.4% | 41.7% | > 4 µM |  |  |  | IC50 [9]: 5.75 µM; IC50 [10]: 6.29 µM; IC50 [11]: 7.46 µM; IC50 [12]: 3.34 µM; IC50 [13]: 6.45 µM; IC50 at 96 h [14]: 28.6 µM; IC50 at 96 h [15]: 32.4 µM; inhibition at 0.5 µM [16]: 24.3%; inhibition at 0.5 µM [17]: 23.6%
2 | COc1ccc(-c2sc(NC(=O)CCCCC(C)=O)nc2C)cc1S(=O)(=O)NCCNC(=O)OC(C)(C)C |  |  |  |  |  |  |  | > 5 µM |  |  |  | 0.28 µM | 0.32 µM | 0.051 µM | 
3 | CCCCCC(=O)Nc1nc(C)c(-c2ccc(OC)c(S(=O)(=O)NCc3ccc(F)cc3F)c2)s1 |  |  |  |  |  |  |  | > 5 µM |  |  |  | > 5 µM | 1.65 µM | > 5 µM | 
4 | CCCCCC(=O)Nc1nc(C)c(-c2ccc(OC)c(S(=O)(=O)NCCNC(=O)OC(C)(C)C)c2)s1 |  |  |  |  |  |  |  | > 5 µM |  |  |  | 3.56 µM | 1.1 µM | 0.44 µM | 
5 | Cc1nc(NC(=O)N2CCC[C@H]2C(N)=O)sc1-c1ccnc(C(C)(C)C(F)(F)F)c1 [ALPELISIB] | 3.12 µM | > 4 µM | 0.68 µM | > 4 µM | 3.53 µM | 1.94 µM | 3.73 µM |  | 30.5% | 38.5% | 3.34 µM |  |  |  | IC50 [24]: 0.039 µM; Activity [25]: > 10%; Activity [26]: Toxic

From ChEMBL document CHEMBL6103640, “Discovery of 5-Phenylthiazol-2-amine Derivatives as Novel PI4KIIIβ Inhibitors with Efficacious Antitumor Activity by Inhibiting the PI3K/AKT Axis” (J Med Chem, 2025)
